Assay results: ChEMBL document CHEMBL3885861, “Open TG-GATES”

Organism: Rattus norvegicus
Experiment: Open TG-GATES - Regimen: Daily Repeat
Type: toxicity, organism-based, Sprague-Dawley
Set-up: regimen Daily Repeat, gender Male, age 6 weeks
Conditions: in vivo, po, 100 mg/kg, route gavage, dose level Middle; for APTT / Bas / Eos / Fbg / Hb / Ht / Lym / MCH / MCHC / MCV / Mono / Neu / PT / Plat / RBC / Ret / WBC: tissue Blood; for KIDNEY_L / KIDNEY_R / KIDNEY_TOTAL: tissue Kidney; for LIVER: tissue Liver; for A/G / ALP / ALT / AST / BUN / CRE / Ca / Cl / DBIL / GLC / IP / K / LDH / Na / PL / RALB / TBIL / TC / TG / TP / gamma-GTP: tissue Plasma

Compound `Brc1ccccc1` [BROMOBENZENE] has a TERMINAL_BW (72 h, time 3 day) of 207.5 g, an APTT (72 h, time 3 day) of 14.7 s and a Bas (72 h, time 3 day) of 0.2%. The Eos (72 h, time 3 day) was 1%, the Fbg (72 h, time 3 day) was 300.2 mg/dL and the Hb (72 h, time 3 day) was 12.9 g/dL. For the same compound, the Ht (72 h, time 3 day) was 38.4%, the Lym (72 h, time 3 day) was 74.2% and the MCH (72 h, time 3 day) was 20.5 pg. The MCHC (72 h, time 3 day) was 33.5%, the MCV (72 h, time 3 day) was 61.1 fL and the Mono (72 h, time 3 day) was 3.5%. For the same compound, the Neu (72 h, time 3 day) was 20.5%, the PT (72 h, time 3 day) was 11.8 s and the Plat (72 h, time 3 day) was 118.8 x10_4/uL. It also gave an RBC (72 h, time 3 day) of 629 x10_4/ul, a Ret (72 h, time 3 day) of 6.2% and a WBC (72 h, time 3 day) of 95.6 x10_2/uL. For the same compound, the KIDNEY_L (72 h, time 3 day) was 0.9 g, the KIDNEY_R (72 h, time 3 day) was 0.9 g and the KIDNEY_TOTAL (72 h, time 3 day) was 1.8 g. The LIVER (72 h, time 3 day) was 11.6 g, the A/G (72 h, time 3 day) was 0.9 and the ALP (72 h, time 3 day) was 1811.5 IU/L. It also gave an ALT (72 h, time 3 day) of 56.5 IU/L, an AST (72 h, time 3 day) of 78.5 IU/L and a BUN (72 h, time 3 day) of 13 mg/dL. For the same compound, the CRE (72 h, time 3 day) was 0.2 mg/dL, the Ca (72 h, time 3 day) was 10.4 mg/dL and the Cl (72 h, time 3 day) was 106 meq/L. It also gave a DBIL (72 h, time 3 day) of 0.015 mg/dL, a GLC (72 h, time 3 day) of 179.8 mg/dL and an IP (72 h, time 3 day) of 6.4 mg/dL. For the same compound, the K (72 h, time 3 day) was 4.1 meq/L, the LDH (72 h, time 3 day) was 101.8 IU/L and the Na (72 h, time 3 day) was 142.2 meq/L. It also gave a PL (72 h, time 3 day) of 166.8 mg/dL, an RALB (72 h, time 3 day) of 2.7 g/dL and a TBIL (72 h, time 3 day) of 0.0575 mg/dL. For the same compound, the TC (72 h, time 3 day) was 88 mg/dL, the TG (72 h, time 3 day) was 66 mg/dL and the TP (72 h, time 3 day) was 5.7 g/dL. For the same compound, the gamma-GTP (72 h, time 3 day) was 1.2 IU/L, the TERMINAL_BW ([…], time 7 day) was 245.7 g and the TERMINAL_BW ([…], time 14 day) was 288.5 g. For the same compound, the TERMINAL_BW ([…], time 28 day) was 381.1 g, the APTT ([…], time 7 day) was 13.4 s and the Bas ([…], time 7 day) was 0%. For the same compound, the Eos ([…], time 7 day) was 1%, the Fbg ([…], time 7 day) was 317.4 mg/dL and the Hb ([…], time 7 day) was 13.3 g/dL. For the same compound, the Ht ([…], time 7 day) was 39.3%, the Lym ([…], time 7 day) was 75.8% and the MCH ([…], time 7 day) was 21.2 pg. The MCHC ([…], time 7 day) was 33.9%, the MCV ([…], time 7 day) was 62.5 fL and the Mono ([…], time 7 day) was 3%. For the same compound, the Neu ([…], time 7 day) was 19.8%, the PT ([…], time 7 day) was 12.2 s and the Plat ([…], time 7 day) was 112.7 x10_4/uL. The RBC ([…], time 7 day) was 629 x10_4/ul, the Ret ([…], time 7 day) was 6.9% and the WBC ([…], time 7 day) was 98.3 x10_2/uL. The APTT ([…], time 14 day) was 16.8 s, the Bas ([…], time 14 day) was 0% and the Eos ([…], time 14 day) was 1%. The Fbg ([…], time 14 day) was 326.4 mg/dL, the Hb ([…], time 14 day) was 14.2 g/dL and the Ht ([…], time 14 day) was 40.9%. It also gave a Lym ([…], time 14 day) of 78%, an MCH ([…], time 14 day) of 20.7 pg and an MCHC ([…], time 14 day) of 34.7%. It also gave an MCV ([…], time 14 day) of 59.8 fL, a Mono ([…], time 14 day) of 2.8% and a Neu ([…], time 14 day) of 18.2%. For the same compound, the PT ([…], time 14 day) was 11.9 s, the Plat ([…], time 14 day) was 113.2 x10_4/uL and the RBC ([…], time 14 day) was 685.4 x10_4/ul. The Ret ([…], time 14 day) was 4.6%, the WBC ([…], time 14 day) was 74.5 x10_2/uL and the APTT ([…], time 28 day) was 17.1 s. The Bas ([…], time 28 day) was 0%, the Eos ([…], time 28 day) was 1% and the Fbg ([…], time 28 day) was 304.8 mg/dL. The Hb ([…], time 28 day) was 14.6 g/dL, the Ht ([…], time 28 day) was 41.5% and the Lym ([…], time 28 day) was 73.8%. For the same compound, the MCH ([…], time 28 day) was 19.3 pg, the MCHC ([…], time 28 day) was 35.1% and the MCV ([…], time 28 day) was 55.1 fL. The Mono ([…], time 28 day) was 3%, the Neu ([…], time 28 day) was 21.2% and the PT ([…], time 28 day) was 12.9 s. It also gave a Plat ([…], time 28 day) of 109.2 x10_4/uL, an RBC ([…], time 28 day) of 754.6 x10_4/ul and a Ret ([…], time 28 day) of 2.6%. It also gave a WBC ([…], time 28 day) of 103.2 x10_2/uL, a KIDNEY_L ([…], time 7 day) of 1.1 g and a KIDNEY_R ([…], time 7 day) of 1.1 g. The KIDNEY_TOTAL ([…], time 7 day) was 2.2 g, the KIDNEY_L ([…], time 14 day) was 1.1 g and the KIDNEY_R ([…], time 14 day) was 1.1 g. The KIDNEY_TOTAL ([…], time 14 day) was 2.2 g, the KIDNEY_L ([…], time 28 day) was 1.4 g and the KIDNEY_R ([…], time 28 day) was 1.4 g. It also gave a KIDNEY_TOTAL ([…], time 28 day) of 2.7 g, an LIVER ([…], time 7 day) of 12.8 g and an LIVER ([…], time 14 day) of 13.7 g. For the same compound, the LIVER ([…], time 28 day) was 17 g, the A/G ([…], time 7 day) was 0.8 and the ALP ([…], time 7 day) was 1614.4 IU/L. It also gave an ALT ([…], time 7 day) of 43.4 IU/L, an AST ([…], time 7 day) of 65 IU/L and a BUN ([…], time 7 day) of 14.8 mg/dL. For the same compound, the CRE ([…], time 7 day) was 0.2 mg/dL, the Ca ([…], time 7 day) was 11.1 mg/dL and the Cl ([…], time 7 day) was 105.2 meq/L. For the same compound, the DBIL ([…], time 7 day) was 0.014 mg/dL, the GLC ([…], time 7 day) was 193.2 mg/dL and the IP ([…], time 7 day) was 7.1 mg/dL. For the same compound, the K ([…], time 7 day) was 4 meq/L, the LDH ([…], time 7 day) was 99.8 IU/L and the Na ([…], time 7 day) was 143 meq/L. For the same compound, the PL ([…], time 7 day) was 149 mg/dL, the RALB ([…], time 7 day) was 2.7 g/dL and the TBIL ([…], time 7 day) was 0.048 mg/dL. For the same compound, the TC ([…], time 7 day) was 71.6 mg/dL, the TG ([…], time 7 day) was 84.8 mg/dL and the TP ([…], time 7 day) was 5.9 g/dL. It also gave a gamma-GTP ([…], time 7 day) of 1 IU/L, an A/G ([…], time 14 day) of 0.8 and an ALP ([…], time 14 day) of 1557.8 IU/L. For the same compound, the ALT ([…], time 14 day) was 39.6 IU/L, the AST ([…], time 14 day) was 63.4 IU/L and the BUN ([…], time 14 day) was 14.6 mg/dL. The CRE ([…], time 14 day) was 0.2 mg/dL, the Ca ([…], time 14 day) was 10.9 mg/dL and the Cl ([…], time 14 day) was 107 meq/L. It also gave a DBIL ([…], time 14 day) of 0.008 mg/dL, a GLC ([…], time 14 day) of 185.6 mg/dL and an IP ([…], time 14 day) of 5.9 mg/dL. The K ([…], time 14 day) was 4 meq/L, the LDH ([…], time 14 day) was 56.6 IU/L and the Na ([…], time 14 day) was 143.6 meq/L. For the same compound, the PL ([…], time 14 day) was 150.4 mg/dL, the RALB ([…], time 14 day) was 2.8 g/dL and the TBIL ([…], time 14 day) was 0.046 mg/dL. It also gave a TC ([…], time 14 day) of 71.2 mg/dL, a TG ([…], time 14 day) of 100.6 mg/dL and a TP ([…], time 14 day) of 6.1 g/dL. The gamma-GTP ([…], time 14 day) was 1 IU/L, the A/G ([…], time 28 day) was 0.8 and the ALP ([…], time 28 day) was 1105.2 IU/L. It also gave an ALT ([…], time 28 day) of 40.8 IU/L, an AST ([…], time 28 day) of 61.8 IU/L and a BUN ([…], time 28 day) of 15.4 mg/dL. The CRE ([…], time 28 day) was 0.3 mg/dL, the Ca ([…], time 28 day) was 10.6 mg/dL and the Cl ([…], time 28 day) was 105.6 meq/L. The DBIL ([…], time 28 day) was 0.016 mg/dL, the GLC ([…], time 28 day) was 198.8 mg/dL and the IP ([…], time 28 day) was 5.8 mg/dL. It also gave a K ([…], time 28 day) of 3.9 meq/L, an LDH ([…], time 28 day) of 86.2 IU/L and a Na ([…], time 28 day) of 142.4 meq/L. For the same compound, the PL ([…], time 28 day) was 140.8 mg/dL, the RALB ([…], time 28 day) was 2.8 g/dL and the TBIL ([…], time 28 day) was 0.04 mg/dL. The TC ([…], time 28 day) was 72.8 mg/dL, the TG ([…], time 28 day) was 108.8 mg/dL and the TP ([…], time 28 day) was 6.3 g/dL. For the same compound, the gamma-GTP ([…], time 28 day) was 1 IU/L.
